Experimental data taken from the RepoRT retention time repository (doi:10.1021/acs.analchem.2c02893).

Test: RP, Thermo Scientific Acclaim RSLC 120 C18, 100 × 2.1 mm, 2.2 µm, 30 °C, 0.2 mL/min, estimated dead time 1.1 min; A: 90% water + 10% methanol + 0.01% formic acid + 5 mM ammonium formate, pH 3.61; B: methanol + 0.01% formic acid + 5 mM ammonium formate, pH 3.61; gradient (min/%B) 0/1 1/1 2/39 13/99.9 15/99.9 15.1/1 20.1/1
Details: stereoisomer not certain

| SMILES | LC retention time [min] |
| --- | --- |
| CCCCC1C(=O)N(c2ccccc2)N(c2ccccc2)C1=O [Phenylbutazone] | 8.98 |
| CCCCCCC(C)(C)c1cc(O)c2c(c1)OC(C)(C)C1CC=C(CO)CC21 (stereo not drawn) [HU-210] | 13.5 |
| N#Cc1nn(-c2c(Cl)cc(C(F)(F)F)cc2Cl)c(N)c1C(F)(F)F [Fipronil-desulfinyl] | 10.4 |
| COP(=O)(OC)OC1=C(Cl)C2CC=CC12 (stereo not drawn) [Heptenophos] | 8.49 |
| CCCCCCn1cc(C(=O)c2cccc3ccccc23)c2ccccc21 [JWH-019] | 12.9 |
| CCC(C(=O)c1ccc2c(c1)OCO2)N(C)C (stereo not drawn) [Dibutylone] | 4.38 |
| CC(=O)N(CC(O)CO)c1c(I)c(C(=O)NCC(O)CO)c(I)c(C(=O)NCC(O)CO)c1I (stereo not drawn) [Iohexol] | 2.98 |
| CC(C)C(O)(C(=O)OCC1=CC[N+]2([O-])CCC(O)C12)C(C)O (stereo not drawn) [Lycopsamine-N-oxide] | 3.94 |
| CCCCOc1cc(C(=O)OCCN(CC)CC)ccc1N [Oxybuprocaine] | 5.94 |
| CCOc1cc(NC(C)=O)ccc1C(=O)OC [Ethopabate] | 6.63 |
| CC1(C)C(C(=O)c2cn(Cc3ccc(F)cc3)c3ccccc23)C1(C)C [FUB-144] | 12.2 |
| COP(=S)(OC)Oc1ccc(S(C)=O)c(C)c1 (stereo not drawn) [Fenthion-sulfoxide] | 7.28 |
| CCC(Oc1ccc(F)c(C(F)(F)F)c1)C(=O)NCc1ccccc1 (stereo not drawn) [Beflubutamide] | 10.6 |
| CNC(C)C(=O)c1ccc(OC)cc1 (stereo not drawn) [Methedrone] | 4.16 |
| CC(C)OC(=O)Nc1ccccc1 [Propham] | 8.11 |
| CCCSP(=S)(OCC)Oc1ccc(SC)cc1 (stereo not drawn) [Sulprofos (Bolstar)] | 12.8 |
| CC(C)OC(=O)C(O)(c1ccc(Cl)cc1)c1ccc(Cl)cc1 [Chloropropylate] | 12.2 |
| CCCCCc1cc(O)c2c(c1)OC(C)(C)C1CCC(CO)=CC21 (stereo not drawn) [THC-OH. 11-OH-THC] | 12.5 |
| CCCCCn1cc(C(=O)c2cccc3ccccc23)c2ccc(OC)cc21 [JWH-018-6-Methoxy-Ind] | 12.4 |
| CC12CCC(=O)C=C1CCC1C2C(O)CC2(C=O)C(C(=O)CO)CCC12 (stereo not drawn) [Aldosterone] | 7.78 |
| CNC(=O)Oc1ccccc1C1OCCO1 [Dioxacarb] | 5.16 |

| SMILES | LC retention time [min] |
| --- | --- |
| COc1cccc(N(C)C(=S)Oc2cccc(C(C)(C)C)c2)n1 [Pyributicarb] | 12.5 |
| CC(C)(C)NCC(O)COc1ccccc1C1CCCC1 (stereo not drawn) [Penbutolol] | 9.01 |
| CCCc1nn(C)c2c(=S)nc(-c3cc(C(=S)N4CCN(C)CC4)ccc3OCC)[nH]c12 [carbodenafil-Dithio-desmethyl] | 11.5 |
| O=C(NC(=O)c1c(F)cccc1F)Nc1cc(Cl)c(OC(F)(F)C(F)C(F)(F)F)cc1Cl (stereo not drawn) [Lufenuron] | 12.5 |
| Cc1ncc2n1-c1ccc(Cl)cc1C(c1ccccc1F)=NC2 [Midazolam] | 8.63 |
| CC(C)(C)NCC(O)COc1cccc2c1CC(O)C(O)C2 (stereo not drawn) [Nadolol] | 4.29 |
| CC(C)N(C(=O)CCl)c1ccccc1 [Propachlor] | 8.25 |
| COc1nc(NC(C)C)nc(NC(C)C)n1 [Prometon] | 8.86 |
| CCCCn1cc(C(=O)c2ccc(C)c3ccccc23)c2ccccc21 [JWH-073-4-Methyl] | 12.4 |
| CN(CCO)c1nc2c(c(=O)n(C)c(=O)n2C)n1C [Cafaminol] | 4.94 |
| COC(=O)C(NC(=O)c1nn(Cc2ccc(F)cc2)c2ccccc12)C(C)(C)C (stereo not drawn) [MDMB-FUBINACA] | 11.3 |
| COC(=O)c1c(C(F)F)nc(C(F)(F)F)c(C2=NCCS2)c1CC(C)C [Thiazopyr] | 10.7 |
| O=P1(NCCCl)OCCCN1CCCl (stereo not drawn) [Ifosfamid] | 5.89 |
| CC(C)OC(=O)c1cc(C(=O)OC(C)C)cc([N+](=O)[O-])c1 [Nitrothal-isopropyl] | 12 |
| CCCCCCCCn1sc(Cl)c(Cl)c1=O [4-5-Dichloro-2-n-octyl-isothiazol-3(2H)-on (DCOIT)] | 12.5 |
| CNCC1CCCCC1(O)c1cccc(OC)c1 (stereo not drawn) [Tramadol-Nor (Tramadol-N-desmethyl)] | 5.3 |
| CCNc1nc(Cl)nc(NC(C)CC)n1 (stereo not drawn) [Sebuthylazine] | 9.09 |
| OCCN1CCN(CCCN2c3ccccc3Sc3ccc(Cl)cc32)CC1 [Perphenazine] | 9.55 |
| CCOC(=O)CC(SP(=S)(OC)OC)C(=O)OCC (stereo not drawn) [Malathion] | 9.59 |
| O=C(c1cccc2ccccc12)c1nc2ccccc2n1CCCCCF [FUBIMINA] | 11.6 |
| O=C(NC(=O)c1c(F)cccc1F)Nc1ccc(OC(F)(F)C(F)OC(F)(F)F)c(Cl)c1 (stereo not drawn) [Novaluron] | 11.9 |

| SMILES | LC retention time [min] |
| --- | --- |
| CN1CCCC(CC2c3ccccc3Sc3ccccc32)C1 (stereo not drawn) [Metixene] | 8.51 |
| Oc1ccc2c3c1OC1C(O)C=CC4C(C2)NCCC341 (stereo not drawn) [Morphine-Nor] | 2.71 |
| [O-][n+]1nc(-n2ccnc2)nc2ccc(Cl)cc21 [Triazoxide] | 8.37 |
| O=C1CN=C(c2ccccc2)c2cc(Cl)ccc2N1 [Diazepam-Nor] | 9.23 |
| CCN(Cc1ccncc1)C(=O)C(CO)c1ccccc1 (stereo not drawn) [Tropicamide] | 6.03 |
| CC12CCC(=O)C=C1CCC1C2C(=O)CC2(C)C(O)CCC12 (stereo not drawn) [11-Ketotestosterone] | 7.9 |
| CNC(=O)Oc1cc(C)cc(C(C)C)c1 [Promecarb] | 9.51 |
| CCN1CCCC1CNC(=O)c1cc(S(=O)(=O)CC)c(N)cc1OC (stereo not drawn) [Amisulpride] | 3.88 |
| N=C1CN(O)C(c2ccccc2)=c2cc(Cl)ccc2=N1 [Chlordiazepoxide-Desmethyl] | 8.27 |
| CC(C(=O)O)N(C(=O)c1ccccc1)c1ccc(F)c(Cl)c1 (stereo not drawn) [Flamprop] | 8.6 |
| Cc1ccc(C2(c3ccccc3)NC(=O)NC2=O)cc1 (stereo not drawn) [MPPH (5-(p-Methylphenyl)-5-phenylhydantoin)] | 8.12 |
| COc1ccc2c(c1OC)C(=O)OC2C1c2c(cc3c(c2OC)OCO3)CCN1C (stereo not drawn) [Noscapine] | 6.96 |
| CC(=O)OCCN1CCN(CCCN2c3ccccc3Sc3ccc(Cl)cc32)CC1 [Thiopropazate] | 9.61 |
| CCCc1nn(C)c2c(=O)[nH]c(-c3cc(C(=O)CN4CCN(CCO)CC4)ccc3OCC)nc12 [Acetildenafil-Hydroxy] | 6.94 |
| CC12Cc3cn[nH]c3CC1CCC1C2CCC2(C)C1CCC2(C)O (stereo not drawn) [Stanozolol] | 11.3 |
| O=C(Nc1cccc(Cl)c1)OCC#CCCl [Barban] | 9.74 |
| CN(C)CCCC1(c2ccc(F)cc2)OC(=O)c2cc(C#N)ccc21 (stereo not drawn) [Citalopram 3-oxo] | 6.6 |
| Nc1nc2c(ncn2COCCO)c(=O)[nH]1 [Aciclovir] | 2.34 |
| O=C(Nc1ccc(F)cc1F)c1cccnc1Oc1cccc(C(F)(F)F)c1 [Diflufenican] | 11.7 |
| CC(C)(C)c1ccc(C(=O)CCCN2CCC(OC(c3ccccc3)c3ccccc3)CC2)cc1 [Ebastine] | 10.9 |
| CN1CCN2c3ccccc3Cc3ccccc3C2C1 (stereo not drawn) [Mianserine] | 6.94 |

| SMILES | LC retention time [min] |
| --- | --- |
| OCCOCCN1CCN(C2=Nc3ccccc3Sc3ccccc32)CC1 [Quetiapine] | 7.26 |
| O=C(NC(=O)c1c(F)cccc1F)Nc1cc(Cl)c(OC(F)(F)C(F)C(F)(F)F)c(Cl)c1F (stereo not drawn) [Noviflumuron] | 12.7 |
| CC=C1CC(C)C(C)(O)C(=O)OCC2=CCN(C)CCC(OC1=O)C2=O (stereo not drawn) [Senkirkine] | 5.16 |
| COc1cc(C(=O)OCCCN(C)CCN(C)CCCOC(=O)c2cc(OC)c(OC)c(OC)c2)cc(OC)c1OC [Hexobendine] | 7.54 |
| CCC(C)C1OC2(C=CC1C)CC1CC(CC=C(C)C(OC3CC(OC)C(OC4CC(OC)C(NC)C(C)O4)C(C)O3)C(C)C=CC=C3COC4C(O)C(C)=CC(C(=O)O1)C34O)O2 (stereo not drawn) [Emamectin B1a] | 12.4 |
| CCOc1cc(CC(=O)NC(CC(C)C)c2ccccc2N2CCCCC2)ccc1C(=O)O (stereo not drawn) [Repaglinide] | 11.9 |
| CC12CCC3c4ccc(O)cc4CCC3C1CCC2O (stereo not drawn) | 12 |
| CCCCCCCCCCCCNC [N-Methyldodecylamine] | 10.5 |
| CN1CCCN=C1COC(=O)C(O)(c1ccccc1)C1CCCCC1 (stereo not drawn) [Oxyphencyclimine] | 7.98 |
| CCCCCCn1c(=O)c2c(ncn2C)n(C)c1=O [Pentifylline] | 9.44 |
| NC(=NN=Cc1ccc(Cl)cc1)NN=Cc1ccc(Cl)cc1 [Robenidine] | 10.4 |
| CC(C)C(NC(=O)c1nn(CCCCCCl)c2ccccc12)C(N)=O (stereo not drawn) [AB-PINACA 5Cl] | 9.99 |
| CC(CN1c2ccccc2Sc2ccc(S(=O)(=O)N(C)C)cc21)N(C)C (stereo not drawn) [Dimetotiazine] | 7.01 |
| CN1C2CCC1CC(OC(=O)C(O)c1ccccc1)C2 (stereo not drawn) [Homatropine] | 3.73 |
| CCC(c1cccc(O)c1)C(C)CN(C)C (stereo not drawn) [Tapentadol] | 5.01 |
| Cc1cnc2c(C(=O)O)c(Cl)ccc2c1 [Quinmerac] | 4.75 |
| Clc1ccc(COC(Cn2ccnc2)c2ccc(Cl)cc2Cl)c(Cl)c1 (stereo not drawn) [Miconazole] | 13 |
| CNC(=O)N(C)c1nc2ccccc2s1 [Methabenzthiazuron] | 8.26 |
| CCCOCC(=Nc1ccc(Cl)cc1C(F)(F)F)n1ccnc1 [Triflumizole] | 11.8 |
| COc1ccc(-c2ccccc2)cc1NNC(=O)OC(C)C [Bifenazate] | 9.87 |
